Laboratory results from US8975280B2, “Deoxynojirimycin and D-arabinitol analogs and methods of using” (The Chancellor, Masters and Scholars of The University of …, priority 2006, dated 2015).
Like-named read-outs stand apart in the source and are kept apart here.

Legend:
α-glucosidase I = target: T1, α-glucosidase I (Rattus norvegicus, UniProt O88941); assay: In vitro inhibition of purified α-glucosidase I, 2-AA-labeled FOS substrates, HPLC; assay type: biochemical
T1 construct: Purified α-glucosidase I and II were purified from rat liver by known methods; from tissue; host or cells: rat liver
T1 sequence (O88941 1-834): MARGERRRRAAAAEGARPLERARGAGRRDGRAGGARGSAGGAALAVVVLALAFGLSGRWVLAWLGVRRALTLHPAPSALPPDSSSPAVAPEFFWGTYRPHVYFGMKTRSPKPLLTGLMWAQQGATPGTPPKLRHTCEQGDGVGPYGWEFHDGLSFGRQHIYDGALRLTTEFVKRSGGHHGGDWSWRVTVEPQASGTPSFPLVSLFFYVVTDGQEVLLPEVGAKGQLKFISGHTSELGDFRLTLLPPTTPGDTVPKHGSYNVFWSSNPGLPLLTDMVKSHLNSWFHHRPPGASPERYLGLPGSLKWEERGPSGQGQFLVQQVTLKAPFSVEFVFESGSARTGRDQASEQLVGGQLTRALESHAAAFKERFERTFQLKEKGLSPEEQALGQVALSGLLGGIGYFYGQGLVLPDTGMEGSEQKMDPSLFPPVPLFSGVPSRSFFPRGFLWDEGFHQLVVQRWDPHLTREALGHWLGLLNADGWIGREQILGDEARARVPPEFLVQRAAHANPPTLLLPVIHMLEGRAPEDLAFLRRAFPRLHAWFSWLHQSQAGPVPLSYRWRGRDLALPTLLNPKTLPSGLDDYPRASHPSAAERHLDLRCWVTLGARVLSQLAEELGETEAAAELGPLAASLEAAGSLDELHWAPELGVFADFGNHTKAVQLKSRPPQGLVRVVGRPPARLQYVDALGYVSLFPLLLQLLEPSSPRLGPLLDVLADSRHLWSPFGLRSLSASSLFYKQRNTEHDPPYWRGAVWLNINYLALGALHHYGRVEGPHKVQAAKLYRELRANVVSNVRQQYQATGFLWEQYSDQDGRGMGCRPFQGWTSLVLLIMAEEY
Method: (§1) All chromatography was performed at 30° C. The first solvent, solvent A, was acetonitrile and the second solvent, solvent B, was Milli-Q water. […] Samples (<50 μl) were injected in Milli-Q water/acetonitrile (3/7, v/v). All chromatography was controlled, including data collection and processing, using Waters Empower software. Glucose units were determined, following comparison with a 2-AA-labeled glucose oligomer ladder (derived from a partial hydrolysate of dextran) external standard using Peak Time software (developed in-house).
Purified α-glucosidase I and II were purified from rat liver by known methods. […] 2-AA-labeled FOS were isolated and purified as substrates for either α-glucosidase I or II. Fluorescently-labeled substrates Glc1Man5GlcNAc1 (G1M5N), Glc2Man5GlcNAc1 (G2M5N), Glc3Man5GlcNAc1 (G3M5N) and Glc3Man9GlcNAc, (G3M9N2) were added to separate 1.5 ml centrifuge tubes with varying concentrations of imino sugar and dried under vacuum. […] Similarly, α-glucosidase II was incubated for 2 hours with G2M5N and 20 minutes with G1M5N. […] The reactions were stopped by the addition of 30 μl acetonitrile.

α-glucosidase II = target: T2, α-glucosidase II (Rattus norvegicus, UniProt A0A8I6GFL3); assay: In vitro inhibition of purified α-glucosidase II, (a) and (b) activities, 2-AA-labeled FOS substrates, HPLC; assay type: biochemical
T2 construct: Purified α-glucosidase I and II were purified from rat liver by known methods; from tissue; host or cells: rat liver
T2 sequence (A0A8I6ADW9 1-525 partner): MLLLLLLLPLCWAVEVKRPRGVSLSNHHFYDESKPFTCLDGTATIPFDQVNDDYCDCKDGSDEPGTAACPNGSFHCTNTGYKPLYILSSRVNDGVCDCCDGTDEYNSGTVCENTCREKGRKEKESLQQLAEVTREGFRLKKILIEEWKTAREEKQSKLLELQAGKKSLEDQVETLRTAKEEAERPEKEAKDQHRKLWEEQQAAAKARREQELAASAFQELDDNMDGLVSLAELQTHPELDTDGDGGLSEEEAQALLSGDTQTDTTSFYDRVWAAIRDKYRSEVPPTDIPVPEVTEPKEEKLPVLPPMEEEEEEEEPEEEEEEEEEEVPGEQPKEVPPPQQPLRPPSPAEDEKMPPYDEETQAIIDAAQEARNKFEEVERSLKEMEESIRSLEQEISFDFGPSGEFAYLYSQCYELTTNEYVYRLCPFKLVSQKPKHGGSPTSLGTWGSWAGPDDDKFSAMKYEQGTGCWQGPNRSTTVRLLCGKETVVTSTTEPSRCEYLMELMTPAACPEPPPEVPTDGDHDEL
Method: as §1
Purified α-glucosidase I and II were purified from rat liver by known methods. […] 2-AA-labeled FOS were isolated and purified as substrates for either α-glucosidase I or II. […] […] […] […] The reactions were stopped by the addition of 30 μl acetonitrile.

[1] = nonamannose substrate Glc3Man9GlcNAc1, read-out: α-Glucosidase I Glc3Man9GlcNAc1 IC50
[2] = pentamannose substrate Glc3Man5GlcNAc1, read-out: α-Glucosidase I Glc3Man5GlcNAc1 IC50
[3] = pentamannose substrate Glc1Man5GlcNAc1, read-out: α-Glucosidase II (b) Glc1Man5GlcNAc1 IC50
[4] = pentamannose substrate Glc2Man5GlcNAc1, read-out: α-Glucosidase II (a) Glc2Man5GlcNAc1 IC50

Row | IC50 (α-glucosidase I; heptamannose substrate Glc3Man7GlcNAc1, read-out: α-Glucosidase I Glc3Man7GlcNAc1 IC50) [nM] | IC50 (α-glucosidase II; heptamannose substrate Glc1Man7GlcNAc1, read-out: α-Glucosidase II (b) Glc1Man7GlcNAc1 IC50) [nM] | IC50 (α-glucosidase II; heptamannose substrate Glc2Man7GlcNAc1, read-out: α-Glucosidase II (a) Glc2Man7GlcNAc1 IC50) [nM] | Structure (SMILES) | IC50 (α-glucosidase I; [1]) [nM] | IC50 (α-glucosidase I; [2]) [nM] | IC50 (α-glucosidase II; [3]) [nM] | IC50 (α-glucosidase II; [4]) [nM]
1 |  |  |  | CCCCN1C[C@H](O)[C@@H](O)[C@H](O)[C@H]1CO [NB-DNJ, N-butyl-DNJ, reference compound] | 590 ± 80 | 680 ± 150 | 53000 ± 16600 | 10800 ± 1100
2 | 45 ± 3 | 10200 ± 20 | 18100 ± 1600 | O=[N+]([O-])c1ccc(NCCCCCCN2C[C@H](O)[C@@H](O)[C@H](O)[C@H]2CO)c([N+](=O)[O-])c1 [NDP-DNJ, N—(N′-{2,4-dinitrophenyl)-6-aminohexyl)-deoxynojirimycin] | 54 ± 20 | 108 ± 20 | 1900 ± 400 | 6900 ± 3400
